Assay results published in patent publication US20220105170A1 (priority 2019, published 2022).
“And” between values parts separate entries of the source, which are not always exact repeats. Equal values may be shown once.

Tested on: peripheral blood lymphocytes collected from swine exposed to ASFV
Type: cell-based

Substance | Number of Spots
1923 (RISSELISY) [compound 1923] | 13
836 (RSEWASSNTF) [compound 836] | 31
1454 (INHLYKFLL) [compound 1454] | 12 and 18
1989 (RMHIYETNLY) [compound 1989] | 14
1228 (SSYNRSLLH) [compound 1228] | 15
469 (HVVQRLGLY) [compound 469] | 14
1212 (TFLLKKRMEL) [compound 1212] | 19
1749 (TLDFDRMWY) [compound 1749] | 15
1501 (ALDLSLIGFY) [compound 1501] | 14
647 (GADPTQKDY) [compound 647] | 14
633 (ILEGVLGYF) [compound 633] | 14
1139 (ALANTSANY) [compound 1139] | 12
1685 (NINRLMPYF) [compound 1685] | 12
1814 (YTIHYSMPY) [compound 1814] | 17
1566 (ARIYAGQGY) [compound 1566] | 14
849 (FLKKNIYLY) [compound 849] | 13

Substance | Number of Spots
66 (CTYGEGNGHY) [compound 66] | 62
1370 (GAMMITFAL) [compound 1370] | 14
2134 (KNYFRFFKK) [compound 2134] | 16
1033 (SVSPVFTSGY) [compound 1033] | 16
VLIEFLTGFF [SEQ ID NO. 554] | 16
2140 (YFRFFKKLL) [compound 2140] | 16
724 (HSDMYSVIFNI) [compound 724] | 15
2223 (SFSEMLTRY) [compound 2223] | 12
2242 (YNLTEAIQY) [compound 2242] | 12
1483 (KTIKHYEQL) [compound 1483] | 12
1718 (SSELHFYVF) [compound 1718] | 15
769 (RLNAPNLKY) [compound 769] | 13
1873 (KLYTAALGVY) [compound 1873] | 12
1701 (YTGIQSPLF) [compound 1701] | 13
1835 (KILGLLLAY) [compound 1835] | 21
